This passage reports IC50 results from patent publication US9663486B2, “Selectively substituted quinoline compounds” (EISAI R&D MANAGEMENT CO., LTD., priority 2013, dated 2017).

The target of one assay is T1, Human TLR7 (Homo sapiens, UniProt Q9NYK1).
T1 construct: stably and individually express human TLR4, TLR7 or TLR9 full-length ORF cDNAs; host or cells: HEK-293 (ATCC) with ELAM-1 NF-kappaB luciferase reporter
T1 sequence (Q9NYK1 27-1049): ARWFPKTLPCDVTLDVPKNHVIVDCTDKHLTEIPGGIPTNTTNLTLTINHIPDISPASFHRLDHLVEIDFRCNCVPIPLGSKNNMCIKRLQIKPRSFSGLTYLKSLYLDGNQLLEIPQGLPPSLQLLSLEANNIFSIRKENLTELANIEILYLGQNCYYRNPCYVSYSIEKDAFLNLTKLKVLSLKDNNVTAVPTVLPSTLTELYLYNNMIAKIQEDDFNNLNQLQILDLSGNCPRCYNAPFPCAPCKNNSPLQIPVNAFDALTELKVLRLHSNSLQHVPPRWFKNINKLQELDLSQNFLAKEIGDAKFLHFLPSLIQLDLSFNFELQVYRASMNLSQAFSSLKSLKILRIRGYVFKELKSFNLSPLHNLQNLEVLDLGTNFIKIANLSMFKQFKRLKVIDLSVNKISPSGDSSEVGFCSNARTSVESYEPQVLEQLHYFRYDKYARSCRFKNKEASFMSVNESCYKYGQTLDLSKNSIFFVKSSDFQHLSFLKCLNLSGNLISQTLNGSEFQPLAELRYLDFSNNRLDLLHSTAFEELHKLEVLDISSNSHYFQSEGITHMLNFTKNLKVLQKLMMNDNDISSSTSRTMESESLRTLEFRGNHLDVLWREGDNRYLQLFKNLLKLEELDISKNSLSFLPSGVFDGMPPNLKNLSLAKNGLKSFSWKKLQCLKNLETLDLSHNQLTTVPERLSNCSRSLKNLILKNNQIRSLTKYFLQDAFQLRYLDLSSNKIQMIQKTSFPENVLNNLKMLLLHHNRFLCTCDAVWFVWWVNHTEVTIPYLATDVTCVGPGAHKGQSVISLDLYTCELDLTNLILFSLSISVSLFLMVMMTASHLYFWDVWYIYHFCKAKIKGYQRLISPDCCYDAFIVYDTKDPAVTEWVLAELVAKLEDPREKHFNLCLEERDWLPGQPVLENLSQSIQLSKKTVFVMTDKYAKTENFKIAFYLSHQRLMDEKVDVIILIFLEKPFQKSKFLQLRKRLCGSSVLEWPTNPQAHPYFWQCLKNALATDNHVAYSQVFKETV
In words: HEK-293 NFkB-luciferase reporter assay, CL097 stimulation. The class given is cell-based. The following applies: ligand CL097. From the text: (§1) HEK-293 cells (ATCC) were engineered to stably express a NF-kappaB transcription factor inducible E-selectin (ELAM-1) luciferase reporter derived from the plasmid pGL3 (Promega) containing base pairs −2241 bp to −254 bp from the promoter of the human E-selectin gene (Accession No. NM_000450). These cells were then subsequently engineered to stably and individually express human TLR4, TLR7 or TLR9 full-length ORF cDNAs. Human TLR4 cDNA (Accession No. NM_138554) was cloned into pcDNA 3.0 expression vector (Invitrogen). TLR4 transfected cells were also engineered to express human MD-2 co-receptor [MD-2 cDNA (Accession No. NM_015364) was cloned into the pEF-BOS vector] and were supplemented with 10 nM soluble CD14 (R&D Systems) in the media to optimize LPS responsiveness. Human TLR9 cDNA (Accession No. NM_017442) was cloned into the pBluescript II KS vector (Agilent). Human TLR7 cDNA (Accession No. NM_016562) was obtained from OriGene. HEK-293 cells stably expressing human TLR8 (Accession No. NM_138636) or mouse TLR7 (Accession No. NM_133211) were purchased from InvivoGen and were then stably transfected with pNiFty2(NF-kappaB)-luciferase reporter plasmid (InvivoGen). Each cell type was plated in Dulbecco's modified Eagle's medium (DMEM) containing 10% fetal bovine serum (FBS) at a density of 2.22×10^5 cells/ml into a 384-well plate and incubated for 2 days at 37° C., 5% CO2. […]

The target of the next assay is Human TLR4 (Homo sapiens, UniProt O00206). Briefly: HEK-293 NFkB-luciferase reporter assay, LPS stimulation. The class given is cell-based. Details: stably and individually express human TLR4, TLR7 or TLR9 full-length ORF cDNAs; expressed in transfected cells; host or cells: HEK-293 (ATCC) with ELAM-1 NF-kappaB luciferase reporter. The settings on record: ligand LPS.
Excerpt: as §1

Chain of Human TLR4 (O00206 24-839): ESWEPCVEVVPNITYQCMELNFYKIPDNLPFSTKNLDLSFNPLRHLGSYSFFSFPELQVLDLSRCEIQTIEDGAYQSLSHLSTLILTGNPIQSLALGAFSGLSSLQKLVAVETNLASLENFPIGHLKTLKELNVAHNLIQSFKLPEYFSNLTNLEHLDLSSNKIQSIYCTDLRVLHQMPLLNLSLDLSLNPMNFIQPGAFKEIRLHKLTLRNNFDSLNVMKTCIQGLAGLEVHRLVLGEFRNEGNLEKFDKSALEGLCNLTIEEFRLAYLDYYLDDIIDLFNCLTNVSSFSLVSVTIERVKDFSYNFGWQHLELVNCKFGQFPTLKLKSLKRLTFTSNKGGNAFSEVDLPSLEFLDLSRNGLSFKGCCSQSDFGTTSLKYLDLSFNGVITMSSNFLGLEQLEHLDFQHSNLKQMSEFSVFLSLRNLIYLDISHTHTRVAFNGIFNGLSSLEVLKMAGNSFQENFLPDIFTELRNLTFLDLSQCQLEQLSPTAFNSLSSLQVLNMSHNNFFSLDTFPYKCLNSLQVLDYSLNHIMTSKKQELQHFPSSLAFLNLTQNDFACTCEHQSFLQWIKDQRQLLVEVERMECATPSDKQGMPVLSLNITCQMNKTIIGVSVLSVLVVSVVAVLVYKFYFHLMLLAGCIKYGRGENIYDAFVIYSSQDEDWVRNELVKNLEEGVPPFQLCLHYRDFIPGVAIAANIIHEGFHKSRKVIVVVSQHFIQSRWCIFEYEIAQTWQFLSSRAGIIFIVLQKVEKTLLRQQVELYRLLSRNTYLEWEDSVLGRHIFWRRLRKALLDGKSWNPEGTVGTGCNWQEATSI
Chain of Human TLR4 (Q9Y6Y9 19-160 partner): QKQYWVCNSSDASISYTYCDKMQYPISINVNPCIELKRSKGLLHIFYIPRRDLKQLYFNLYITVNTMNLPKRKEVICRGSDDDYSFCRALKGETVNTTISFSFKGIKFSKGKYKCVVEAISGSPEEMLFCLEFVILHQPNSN

Consider `C[C@H]1C[C@@H](N)CN(c2ccc(C#N)c3ncccc23)C1` [ER-888840, 5-((3R,5S)-3-amino-5-methylpiperidin-1-yl)quinoline-8-carbonitrile], for which the IC50 is 0.2 nM against Human TLR7 and greater than 10000 nM on Human TLR4.

By IC50 is commonly meant the concentration at which inhibition is half-maximal. Lower therefore signals greater potency in that assay.
